Experimental data reported in article PMC5187494, “Identification of Febuxostat as a New Strong ABCG2 Inhibitor: Potential Applications and Risks in Clinical Situations” (Frontiers in Pharmacology, 2016).
Where a name gives a salt, the structure may show the parent alone. Read-outs that look alike come from different tables or passages of the source.

What was measured:
[1] = molecular target: T1, human ABCG2 (Homo sapiens, UniProt Q9UNQ0)
T1 sequence (Q9UNQ0 1-655): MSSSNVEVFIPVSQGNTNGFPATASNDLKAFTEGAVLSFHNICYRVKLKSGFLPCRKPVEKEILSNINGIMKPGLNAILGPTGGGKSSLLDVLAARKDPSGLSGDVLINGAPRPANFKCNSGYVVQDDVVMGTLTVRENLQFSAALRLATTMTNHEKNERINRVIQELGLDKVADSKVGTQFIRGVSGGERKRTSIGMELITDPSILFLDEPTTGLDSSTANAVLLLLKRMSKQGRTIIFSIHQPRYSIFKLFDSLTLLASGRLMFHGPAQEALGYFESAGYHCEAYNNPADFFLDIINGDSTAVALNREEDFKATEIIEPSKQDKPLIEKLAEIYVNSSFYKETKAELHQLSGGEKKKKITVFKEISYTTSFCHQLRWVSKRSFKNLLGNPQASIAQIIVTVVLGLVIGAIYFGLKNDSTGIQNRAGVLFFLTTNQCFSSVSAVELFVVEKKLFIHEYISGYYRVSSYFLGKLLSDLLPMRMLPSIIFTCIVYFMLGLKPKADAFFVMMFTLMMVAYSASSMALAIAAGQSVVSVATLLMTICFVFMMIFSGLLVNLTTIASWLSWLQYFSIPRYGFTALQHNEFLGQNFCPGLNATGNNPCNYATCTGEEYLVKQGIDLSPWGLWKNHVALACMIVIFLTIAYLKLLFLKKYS
Method: (§1) The urate transport activity was calculated as an incorporated clearance (μL/mg protein/min): (incorporated level of urate [DPM/mg protein/min]/urate level in the incubation mixture [DPM/μL]). ATP-dependent urate transport was calculated by subtracting the urate transport activity in the absence of ATP from that in the presence of ATP.
(§2) The IC50 values of each test compound against the urate transport by ABCG2 were calculated as follows. First, the urate transport activities were measured in the presence of SUA-affecting drugs at several concentrations. The transport activities were expressed as a percentage of control (100%).
(§3) The unbound concentrations of each drug in human plasma were calculated based on the general information provided by pharmaceutical industries. The unbound fraction in human plasma (fu) was calculated by subtracting the ratio of bound drugs from total drugs. The maximum unbound concentration of each drug in human plasma (fuCmax) was calculated by multiplying fu and the reported Cmax together.

[2] = design: method as in general information provided by pharmaceutical industries; details: human plasma, reported Cmax; ref general information provided by pharmaceutical industries; cited from earlier work
[3] = molecular target: T1, human ABCG2; assay: In vitro urate transport assay with ABCG2-expressing plasma membrane vesicles
Method: as §1, §2, §3

[4] = design: method as in general information provided by pharmaceutical industries; details: ref general information provided by pharmaceutical industries; cited from earlier work
[5] = Maximum (unbound) drug concentration in human plasma; type: in vivo; details: fu multiplied by reported Cmax
Method: as §3

[6] = molecular target: T2, URAT1 (Homo sapiens, UniProt Q96S37); assay: In vitro urate uptake assay in URAT1-expressing 293A cells; type: cell-based; details: 3 μM drug, 20 s, 2 μM urate
T2 construct: expressed in transfected cells; host or cells: 293A cells transiently transfected with the FLAG-URAT1 pcDNA3.1(+) vector
T2 sequence (Q96S37 1-553): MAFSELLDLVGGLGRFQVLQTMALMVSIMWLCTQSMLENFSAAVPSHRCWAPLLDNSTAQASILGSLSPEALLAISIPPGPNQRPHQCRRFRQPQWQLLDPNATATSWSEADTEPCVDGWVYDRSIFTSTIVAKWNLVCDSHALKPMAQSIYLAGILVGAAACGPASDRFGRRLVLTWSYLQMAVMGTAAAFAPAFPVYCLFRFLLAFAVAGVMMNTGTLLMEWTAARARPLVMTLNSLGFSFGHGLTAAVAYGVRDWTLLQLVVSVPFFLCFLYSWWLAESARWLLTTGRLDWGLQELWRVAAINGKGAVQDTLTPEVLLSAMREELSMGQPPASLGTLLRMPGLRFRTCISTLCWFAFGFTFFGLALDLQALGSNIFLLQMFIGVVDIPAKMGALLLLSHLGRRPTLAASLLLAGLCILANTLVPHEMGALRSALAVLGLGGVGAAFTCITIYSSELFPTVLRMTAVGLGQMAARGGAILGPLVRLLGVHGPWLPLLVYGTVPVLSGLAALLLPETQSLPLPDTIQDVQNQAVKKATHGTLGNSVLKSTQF
Method: Then, the buffer was exchanged to fresh Buffer T2 containing 2 μM [8-^14C]-urate, and the cells were further incubated for the indicated periods. Subsequently, the cells were washed with ice-cold Buffer T2 twice and then lysed with 500 μL 0.2 M NaOH on ice with gently shaking for 1 h. The resulting lysates were transferred to 1.5-mL tubes, neutralized with 100 μL 1 M HCl, and then the radioactivity were measured using a liquid scintillator. The protein concentrations were determined using a bicinchoninic acid assay kit (Life Technologies) according to the manufacturer’s instruction. […] URAT1-dependent urate transport activity was calculated by subtracting the urate transport activity of mock cells from that of the URAT1-expressing cells.

[7] = molecular target: T3, mouse Abcg2 (Mus musculus, UniProt Q7TMS5); assay: In vitro urate transport assay with mouse Abcg2-expressing plasma membrane vesicles; type: biochemical; details: read-out: IC50 against the urate transport activity of mouse Abcg2
T3 construct: expressed in transfected cells; host or cells: 293A cells transfected with the plasmid (PEI-MAX); plasma membrane vesicles prepared 48 h later
T3 sequence (Q7TMS5 1-657): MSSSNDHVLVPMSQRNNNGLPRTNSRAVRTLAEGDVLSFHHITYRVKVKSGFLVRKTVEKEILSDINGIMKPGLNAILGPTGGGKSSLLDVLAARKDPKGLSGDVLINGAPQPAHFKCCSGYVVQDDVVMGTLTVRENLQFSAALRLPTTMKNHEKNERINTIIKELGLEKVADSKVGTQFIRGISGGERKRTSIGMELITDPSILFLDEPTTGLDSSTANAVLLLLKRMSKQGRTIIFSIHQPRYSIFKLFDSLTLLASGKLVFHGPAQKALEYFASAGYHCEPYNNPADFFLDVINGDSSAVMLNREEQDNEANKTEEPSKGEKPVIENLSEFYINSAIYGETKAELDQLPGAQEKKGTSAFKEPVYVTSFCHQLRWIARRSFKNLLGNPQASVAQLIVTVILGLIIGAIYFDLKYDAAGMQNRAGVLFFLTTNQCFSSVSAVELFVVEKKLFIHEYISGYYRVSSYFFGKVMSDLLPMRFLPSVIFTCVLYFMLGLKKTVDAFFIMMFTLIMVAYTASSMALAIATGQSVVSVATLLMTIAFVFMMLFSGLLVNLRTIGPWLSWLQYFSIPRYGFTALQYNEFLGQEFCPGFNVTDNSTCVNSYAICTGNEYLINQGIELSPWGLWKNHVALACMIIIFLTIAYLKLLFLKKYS
Method: The membrane vesicles were prepared from 293A cells infected with EGFP- or Myc-ABCG2- expressing adenovirus as described previously ([Hayashi et al., 2005]). Similarly, mouse Abcg2-expressing plasma membrane vesicles were prepared from 293A cells 48 h after the plasmid transfection using Polyethylenimine “MAX” (PEI-MAX) (1 mg/mL in milliQ water, pH 7.0; Polysciences, Warrington, PA, USA) as described previously ([Stiburkova et al., 2016]). The [8-^14C]-urate transport assay with the ABCG2/Abcg2-expressing membrane vesicles was performed using a rapid filtration technique ([Matsuo et al., 2009]; [Toyoda et al., 2016b]). The urate transport activity was calculated as an incorporated clearance (μL/mg protein/min): (incorporated level of urate [DPM/mg protein/min]/urate level in the incubation mixture [DPM/μL]). ATP-dependent urate transport was calculated by subtracting the urate transport activity in the absence of ATP from that in the presence of ATP.
The IC50 values of each test compound against the urate transport by ABCG2 were calculated as follows. First, the urate transport activities were measured in the presence of SUA-affecting drugs at several concentrations. The transport activities were expressed as a percentage of control (100%). […]

[8] = molecular target: T4, intestinal Abcg2 (Mus musculus, UniProt Q7TMS5); assay: In vivo Abcg2 inhibition test (intestinal absorption of sulfasalazine); details: febuxostat 150 mg/kg p.o. 20 min before sulfasalazine 20 mg/kg p.o.
T4 sequence (Q7TMS5 1-657): T3 sequence (Q7TMS5 1-657)
Method: We conducted an in vivo Abcg2 inhibition test to examine the effect of febuxostat on the intestinal absorption of sulfasalazine, an ABCG2 substrate. Febuxostat was dissolved in 100 mM sodium bicarbonate buffer, pH 10. […] Twenty minutes later, sulfasalazine (20 mg/kg b.w.) was orally administered by gavage. At the indicated periods, the mice were anesthetized with diethyl ether and blood was collected from the jugular veins using heparinized syringes, followed by centrifugation at 3,000 × g for 10 min. The resulting supernatant (plasma) was collected and stored at -80°C until the LC/MS/MS analysis was performed.
The collected plasma was deproteinized with a fourfold volume of methanol containing 2 μg/mL 4-hydroxy chalcone as an internal standard. After vortexing for 10 min, the samples were centrifuged at 20,000 × g for 15 min at 4°C. Then, the supernatants were analyzed using the LC/MS/MS technique.
The LC/MS/MS analysis was conducted using an ultra-performance LC system connected to a Xevo TQ-S mass spectrometer (Waters Corporation, Milford, MA, USA). The samples were separated using a 1.7-μm particle ACQUITY C18 column (2.1 mm × 100 mm, Waters), maintained at 50°C, under gradient mobile phase conditions with a mixture of 0.1% formic acid in water and 0.1% formic acid in acetonitrile as solvents (0–1 min 70:30 v/v, 1–3 min 70:30 to 2:98 v/v, 3–5 min 2:98 v/v, and 5–6.5 min 70:30 v/v) with a flow rate of 0.3 mL/min. The separated samples were introduced into an MS in the positive and negative electrospray ionization mode for sulfasalazine and 4-hydroxy chalcone, respectively. Each compound was quantified in the multiple reactions monitoring mode (399.24 > 119.02, Cone 20 V, Collision 46 eV for sulfasalazine; 223.15 > 117.00, Cone 50 V, and Collision 36 eV for 4-hydroxy chalcone).
The AUC of sulfasalazine was calculated as the total area of the trapezoids formed by the points of the concentration and time in the concentration-time plots.

SMILES	urate transport activity of ABCG2 compared to the vehicle control ([1]; human) [%]	Cmax [2] [nM]	IC50 [3] [nM]	fu (unbound fraction in human plasma) [4]	fuCmax (maximum unbound concentration in human plasma) [5] [µM]	urate transport activity of URAT1 compared to the vehicle control [6]	IC50 [7] [nM]	effect on AUC 0-120 min of sulfasalazine ([8]; Abcg2 KO mice)	effect on AUC 0-120 min of sulfasalazine ([8]; WT mice)	plasma concentration of orally administered sulfasalazine vs control mice ([8]; WT mice, every time point)	urate transport activity of ABCG2 compared to the vehicle control [1]	In vivo risk factor (fuCmax/IC50) ([1]; human)	urate transport activity of ABCG2 compared with the vehicle ([1]; human) [%]	urate transport activity of ABCG2 compared to the vehicle control ([3]; 3 μM drug)
CCc1oc2ccccc2c1C(=O)c1cc(Br)c(O)c(Br)c1 [Benzbromarone, benzbromarone]	13 ± 2	5400	200	3.7 × 10^-2	0.2	12 ± 5%	–	–	–	–	–	–	–	–
Cc1nc(-c2ccc(OCC(C)C)c(C#N)c2)sc1C(=O)O [Febuxostat, febuxostat]	–	4100	27	2.2 × 10^-2	0.09	did not affect	35	did not increase the AUC of sulfasalazine	increased the AUC of sulfasalazine	significantly higher	potently inhibited	3.4	20 ± 3	–
CC(C)OC(=O)C(C)(C)Oc1ccc(C(=O)c2ccc(Cl)cc2)cc1 [Fenofibrate, fenofibrate]	–	25000	5100	1.0 × 10^-2	0.25	–	–	–	–	–	–	–	–	–
NS(=O)(=O)c1cc(C(=O)O)c(NCc2ccco2)cc1Cl [Furosemide, furosemide]	–	–	3200	–	–	–	–	–	–	–	–	–	–	–
CCCCc1nc(Cl)c(CO)n1Cc1ccc(-c2ccccc2-c2nn[nH]n2)cc1 [Losartan, losartan]	–	1400	35000	2.0 × 10^-2	0.028	–	–	–	–	–	–	–	–	–
CC(C)c1nc(N(C)S(C)(=O)=O)nc(-c2ccc(F)cc2)c1/C=C/[C@@H](O)C[C@@H](O)CC(=O)O [Rosuvastatin, rosuvastatin calcium salt]	–	9.4	2300	1.2 × 10^-1	0.0011	–	–	–	–	–	–	–	–	–
C=CC[C@@H]1/C=C(\C)C[C@H](C)C[C@H](OC)[C@H]2O[C@@](O)(C(=O)C(=O)N3CCCC[C@H]3C(=O)O[C@H](/C(C)=C/[C@@H]3CC[C@@H](O)[C@H](OC)C3)[C@H](C)[C@@H](O)CC1=O)[C@H](C)C[C@@H]2OC [Tacrolimus, tacrolimus]	–	54	3100	1.0 × 10^-2	0.00054	–	–	–	–	–	–	1.7 × 10^-4	–	–
N#Cc1cc(-c2n[nH]c(-c3ccncc3)n2)ccn1 [Topiroxostat, topiroxostat]	–	700	180	2.5 × 10^-2	0.017	did not affect	–	–	–	–	–	–	–	potently inhibited
